The results in this text go back to US20140056952A1, “METHODS AND COATINGS FOR TREATING BIOFILMS” (President and Fellows of Harvard College, priority 2011, published 2014).

Entries after “also recorded” stand apart in the source; their conditions may differ.

Data set [1] deals with B. subtilis strain NCBI3610. Nature of the data set: Pellicle (biofilm) formation inhibition assay in liquid biofilm-inducing medium. The conditions noted are these: for inhibition of pellicle formation: final concentration of 50 μM; for concentration needed for inhibition of biofilm formation: B. subtilis pellicle formation; for biofilm-inhibitory activity (library of polyamines): B. subtilis. The data set is classed as cell-based, Bacillus subtilis. The method, then:
Bacillus subtilis strains PY79, 3610 and their derivatives were grown in Luria-Bertani (LB) medium at 37° C. or MSgg medium (1) at 23° C. Solid media contained 1.5% Bacto agar. When appropriate, antibiotics were added at the following concentrations for growth of B. subtilis: 10 μg per ml of tetracycline, and 5 μg per ml of erythromycin, 500 μg per ml of spectinomycin.
B. subtilis strain NCBI3610 was grown at 22° C. in 12-well plates in liquid biofilm-inducing medium for 3 or 8 days. Conditioned medium (500 ml) from an 8-day-old culture was concentrated on the C-18 column and eluted step-wise with methanol.
To identify the second biofilm-inhibiting factor, high-performance liquid chromatography (HPLC) was carried out on the 25% methanol eluate using a phenyl-hexyl column. […] Cells of NCBI3610 were grown in fresh medium containing PBS buffer (control), norspermidine (100 μM), morpholine (100 μM) HPLC-purified fatty acid (˜100 μM), or spermidine (100 μM).
Pellicle formation of strain NCBI 3610 was tested in the presence of the indicated concentrations of norspermidine (FIG. 1D) or spermidine (FIG. 1E).
To identify features of norspermidine important for its biofilm disassembly activity, we tested a library of polyamines in our biofilm inhibition assay (FIGS. 9A, 9B, 10 and Table 2).
The effect of polyamines on pellicle formation by B. subtilis was examined. B. subtilis wild-type cells were grown to a mid-logarithmic phase and diluted 1:1000 in biofilm media applied with each polyamine to the final concentration of 50 μM.
The effect of cyclic polyamines on biofilm formation by B. subtilis was examined. B. subtilis wild-type cells were grown to a mid-logarithmic phase and diluted 1:1000 in biofilm media (18A) or in a medium applied with cyclic compound 1,5,9-Triazacyclododecane to the final concentration of 50 μM (18B).

In data set [2] the test system is B. subtilis wild-type cells. The experiment in a line: Biofilm formation on solid biofilm medium. The data set is classed as cell-based, Bacillus subtilis. The conditions noted are these: 1 μl cells mixed with 1 μl (1 mM) polyamine. The method, then: B. subtilis wild-type cells were grown to a mid-logarithmic phase and 1 μl of cells was mixed with 1 μl (1 mM) of each polyamine. The mixture was plated on solid biofilm medium.
B. subtilis wild-type cells were grown to a mid-logarithmic phase and 1 μl of cells was either mixed with PBS (18C) or mixed with 1 μl (1 mM) of each polyamine (18D). The mixture was plated on solid biofilm medium. “3*” refers to 1,5,9-Triazacyclododecane.

Data set [3] concerns exopolysaccharide of B. subtilis NCBI 3610 cells. The experiment in a line: Fluorescence microscopy of exopolysaccharide with concanavalin A-Texas Red. The data set is classed as cell-based, Bacillus subtilis. The conditions noted are these: norspermidine 25 μM, spermidine 1 mM. The text has this:
The cells were washed in PBS and stained for exopolysaccharide with a conjugate of concanavalin A with Texas-Red.
(§1) To investigate further, exopolysaccharide was visualized by fluorescence microscopy using a conjugate of the carbohydrate-binding protein concanavalin A with Texas Red (FIG. 5) (McSwain et al., 2005). As evidence of specificity, the conjugate decorated wild-type cells but not cells from a mutant (Δeps) blocked in exopolysaccharide production (FIG. 6A). Indeed, at an exposure at which concanavalin A staining with the wild type strain gave an extremely bright fluorescent signal, little or no signal could be detected for the Δeps mutant, except at long exposures and enhanced brightness (FIG. 6A). Next, we investigated the effects of norspermidine and spermidine. […] Therefore, the difference in the staining was evidently due to differential levels of cell-associated exopolysaccharide. […] Thus, while not being bound to any theory, it is believed that norspermidine disrupts the matrix and by targeting exopolysaccharide.

Data set [4] deals with exopolysaccharide of S. aureus cells. The experiment in a line: Fluorescence microscopy of exopolysaccharide staining. The data set is classed as cell-based, Staphylococcus aureus.
The test system of a further data set is E. coli strain MC4100. The experiment in a line: Submerged biofilm formation, crystal violet staining. It counts as cell-based, Escherichia coli. The conditions noted are these: library tested at 500 μM. On the procedure:
(§2) The compounds were tested at 500 μM. Biofilm formation was visualized by crystal violet staining of submerged biofilms.
(§3) Whether polyamines might prevent biofilm formation by other bacteria that produce an exopolysaccharide matrix was examined. […] The compounds were tested at 500 μM. Biofilm formation was visualized by crystal violet staining of submerged biofilms.
(§4) In testing E. coli, the biofilm-proficient strain MC4100 was selected because a major component of exopolysacchride is colanic acid (Danese et al., 2000; Price and Raivio, 2009).

The test system of data set [5] is Proteus mirabilis strain BB2000. Nature of the data set: Biofilm formation in polystyrene wells, crystal violet OD 595 nm. It counts as cell-based. The conditions noted are these: 1 mM, 48 hours at 30° C., vs no treatment control. The method, then: To examine the effects of polyamines on biofilm formation, wells were initially treated with water (no treatment), 1 mM norspermidine, and 1 mM norspermine in 3 ml M9+glucose before inoculation with P. mirabilis. Biofilms were permitted to grow for 48 hours at 30° C. without shaking The amount of biofilm formed was assessed with the standard assay of crystal violet staining (O'Toole G et al., Biofilm formation as microbial development, Annu Rev. Microbiol. (2000) 54:49-79); supernatant was removed from the wells and crystal violet (at […]) was then incubated in each well for 15 minutes at room temperature, followed by removal of the crystal violet from the wells and a subsequent washes with water. Any crystal violet attached the wells was next solubilized with 95% ethanol for 15 minutes at room temperature, and the subsequent optical density at 595 nm in each well was measured with a multiplate reader.

The subject of data set [6] is P. aeriginosa strain PA14. Nature of the data set: Biofilm formation on solid M63 medium. The conditions noted are these: 1 μl cells mixed with 1 μl (10 mM) polyamine. The data set is classed as cell-based, Pseudomonas aeruginosa. On the procedure: The effect of polyamines on biofilm formation by Pseudomonas was examined. P. aeriginosa strain PA14 were grown to a mid-logarithmic phase and 1 μl of cells was mixed with 1 μl (10 mM) of each polyamine. The mixture was plated on solid M63 medium.

In the next data set the test system is S. aureus strain SCO1. The experiment in a line: Submerged biofilm formation, crystal violet staining. The data set is classed as cell-based, Staphylococcus aureus. The conditions noted are these: norspermidine 10 μM, norspermine 100 μM; library at 500 μM. The method, then:
as §2, §3
Similarly, FIGS. 19A-H show the results of S. aureus strain SC-01 grown to a mid-logarithmic phase and diluted 1:1000 into a 12 wells plate in a TSB medium applied with NaCl (3%) and Glucose (0.5%). The medium was applied with norspermidine (10 μM), norspermine (100 μM) or spermine (500 μM). Planktonic cells were removed (19A-D). Wells were washed once, and incubated with Crystal Violet (0.1%) for 15 mins. Wells were washed twice in DDW (19E-H).
The effect of certain polyamines combined with biofilm-inhibiting D-amino acids in Staphylococcus was examined. S. aureus strain SC-01 was grown to a mid-logarithmic phase and diluted 1:1000 into a 12 wells plate in a TSB medium applied with NaCl (3%) and Glucose (0.5%). The medium was applied with either norspermidine or D-tyrosine or both as indicated below each panel. Planktonic cells were removed Wells were washed once, and incubated with Crystal Violet (0.1%) for 15 mins. Wells were washed twice in DDW.

For another data set, the system named is TasA-mCherry. Nature of the data set: Fluorescence microscopy of TasA-mCherry fusion. It counts as cell-based, Bacillus subtilis. The conditions noted are these: norspermidine 50 μM. The method, then:
NCBI 3610 containing the tasA-mCherry fusion (DR30) was grown without shaking in a biofilm medium (upper row) or in the same medium applied with norspermidine (50 μM, lower row). Cells were washed in PBS, and visualized by fluorescence microscopy.
as §1

Data set [7] deals with exopolysaccharide of E. coli cells. The experiment in a line: Fluorescence microscopy of exopolysaccharide staining. It counts as cell-based, Escherichia coli.
From the text: as §4

A further data set deals with B. subtilis NCBI 3610. Nature of the data set: Cell growth in MSgg medium with shaking. It counts as cell-based, Bacillus subtilis. The conditions noted are these: norspermidine 100 μM. On the procedure:
NCBI 3610 was grown in MSgg medium applied with norspermidine (100 μM) with shaking or in untreated medium served as a control (NT). […] Therefore, whether norspermidine interacts directly with the exopolysaccharide was investigated. To attempt to detect such an interaction, dynamic light scattering was used. Dynamic scattering is a standard procedure for measuring the average radius of polymers in which a laser beam is transmitted through a sample containing polymers in solution (Berne, 1976; Orgad et al., 2011; Vinayahan et al., 2010).

Data set [8] has as its system B. subtilis strain NCBI3610. The experiment in a line: Pellicle (biofilm) formation inhibition assay in liquid biofilm-inducing medium. It counts as cell-based, Bacillus subtilis.
The next data set relates to B. subtilis pellicles. The experiment in a line: Disassembly of pre-formed pellicles (OD600 of medium vs pellicle). The data set is classed as cell-based, Bacillus subtilis. The conditions noted are these: 250 μM applied at day 2, additional 24 hrs. On the procedure:
After incubation for the indicated times, pellicle material and the medium were separated and each brought to a volume of 3 ml. After mild sonication, the OD600 was determined for each sample. The % of disassembly represents the OD600 of the medium as a percent of the sum of the OD600 of the medium and the OD600 of the pellicle. […] Thus, D-amino acids and norspermidine act synergistically in preventing biofilm formation and triggering the disassembly of mature biofilms.
Whether polyamines could trigger disassembly of biofilms formed by B. subtilis was examined. B. subtilis wild-type cells grown in liquid biofilm medium. Cells were grown to mid-logarithmic phase and diluted 1:1000 in liquid biofilm media. At day 2, pre-formed pellicles were applied with either PBS (A) or norspermine (250 μM) (B). Pellicles were incubated for additional 24 hrs.

On to speramide [reference compound], for which the “inhibition of pellicle formation” value in data set [1] was “do not”. Moreover, in data set [2], the “inhibition of biofilm formation on solid biofilm medium” value (from here on “inhibition … on solid biofilm medium”) is reported as “do not”.

Regarding `NCCCCNCCCN` [Molecule 3, spermidine, reference compound], in data set [1], the “concentration needed for inhibition of biofilm formation” value is reported as > 2 mM and the “inhibition of pellicle formation” value was “do not”. In addition, the “pattern of exopolysaccharide staining” value in data set [3] was “No such effect”. For the same compound, in [2], the “inhibition … on solid biofilm medium” value is given as “do not”.

Turning to `C1CNCCCNCCCNC1` [c, 1,5,9-triazacyclododecane], in data set [1], the “inhibition of pellicle formation” value is “inhibits biofilm formation”. In data set [2], the “inhibition … on solid biofilm medium” value is “inhibits biofilm formation”.

On to `NCCCNCCCN` [Molecule 1, N-(3-aminopropyl)propane-1,3-diamine], for which, in [1], the “biofilm-inhibitory activity (library of polyamines)” value (shortened to “biofilm-inhibitory activity”) is reported as “exhibited biofilm-inhibitory activity” and the “inhibition of pellicle formation” value is given as “inhibit biofilm formation”. Moreover, the “MBIC- Minimal Biofilm Inhibitory Concentration” value in [1] (B. subtilis biofilm inhibition assay) fell in the range of 25 to 50 µM. For the same compound, in [1] (authentic norspermidine, NCBI3610 pellicle), the “concentration at which biofilm formation was inhibited” value turned out to be 25 µM. The “staining of exopolysaccharide, S. aureus” value in data set [4] is “markedly diminished staining”. For the same compound, in [3], the “pattern of exopolysaccharide staining” value is reported as “disrupted the relatively uniform, cell-associated pattern of staining”. Also, the “inhibition of biofilm formation by E. coli” value in the data set with E. coli strain MC4100 is on record as “inhibited the formation of submerged biofilms”. For the same compound, the “reduction of Proteus mirabilis biofilm formation” value in data set [5] was “sufficient to reduce biofilm formation”. Moreover, the “inhibition of biofilm formation by Pseudomonas” value in [6] is “inhibit biofilm formation”. Further, the “inhibition of biofilm formation by S. aureus” value in the data set on S. aureus strain SCO1 was “inhibited the formation of submerged biofilms; also recorded: inhibit biofilm formation”. The “effect on protein component of the matrix (TasA-mCherry)” value in the data set on TasA-mCherry is given as “little or no effect”. In data set [7], the “staining of exopolysaccharide, E. coli” value is on record as “markedly diminished staining”. The “inhibition … on solid biofilm medium” value in [2] is listed as “inhibit biofilm formation”. Further, in the data set on B. subtilis NCBI 3610, the cell growth entry is on record as “not significantly inhibited”. For the same compound, the “effect on residual pellicle of exopolysaccharide mutant” value in data set [8] (ΔepsH, DS76, 25 μM norspermidine) is reported as “little effect”. In addition, the “effect on pellicle formation by amyloid fiber mutant” value in [8] (ΔtasA, FC55, 25 μM norspermidine) is “abolished pellicle formation”.

Consider `NCCCN(CCCN)CCCN` [Molecule 21, N^1,N^1-bis(3-aminopropyl)propane-1,3-diamine], for which, in [1], the “biofilm-inhibitory activity” value is recorded as “did not block activity”.

Consider 1,3-diaminopropane [Molecule 6], for which the “concentration needed for inhibition of biofilm formation” value in data set [1] is on record as > 5 mM.

`NCCCNCCCNCCCN` [Molecule 2, N′-[3-(3-aminopropylamino)propyl]propane-1,3-diamine]: in data set [1], the “biofilm-inhibitory activity” value was “exhibited biofilm-inhibitory activity” and the “inhibition of pellicle formation” value is listed as “inhibit biofilm formation”. Further, in the data set on B. subtilis pellicles, the “disassembly of pre-formed pellicles” value is given as “triggered disassembly”. Besides, the “inhibition of biofilm formation by E. coli” value in the data set with E. coli strain MC4100 is “inhibited the formation of submerged biofilms”. Also, the “reduction of Proteus mirabilis biofilm formation” value in [5] is on record as “sufficient to reduce biofilm formation”. For the same compound, the “inhibition of biofilm formation by Pseudomonas” value in [6] is listed as “inhibit biofilm formation”. The “inhibition of biofilm formation by S. aureus” value in the data set with S. aureus strain SCO1 is “inhibited the formation of submerged biofilms; also recorded: inhibit biofilm formation”. In addition, the “inhibition … on solid biofilm medium” value in [2] was “inhibit biofilm formation”.
